Measurements taken from patent publication EP0888293B1, “N-ACYLAMINOALKYLHYDRAZINECARBOXIMIDAMIDES” (ALTEON Inc., priority 1995, dated 1997).
Structures can show the parent of a compound that is named as a salt.

Key:
[1] = target: T1, inducible nitric oxide synthase (Mus musculus, UniProt P29477); assay: Nitric oxide production by lipopolysaccharide-induced macrophage cells; format: cell-based; settings: RAW 264.7 macrophage cells induced with lipopolysaccharide; test concentration not given
T1 construct: Nitric oxide (NO) production by macrophage cells (RAW 264.7) is induced with lipopolysaccharride; endogenous in cells; host or cells: RAW 264.7 macrophage cells, LPS-induced

[2] = test system: N-acetyl glycyl-lysine methyl ester; assay: Inhibition of cross-linking of N-acetyl glycyl-lysine methyl ester in the presence of ribose (fluorescence); format: biochemical; settings: N-acetylglycyllysine methyl ester + ribose, pH 7.4, 37°C, 16-24 hours, fluorescence 350/400 nm
Experimental: The following method was used to evaluate the ability of the compounds of the present invention to inhibit the cross-linking of N-acetyl glycyl-lysine methyl ester in the presence of ribose.
• 0.5 M sodium phosphate buffer pH 7.4 • N-acetylglycyllysine methyl ester in 0.5M sodium phosphate buffer, pH 7.4 • Ribose: 800 mM • Test compounds dissolved in the above buffer and the pH is adjusted to 7.4, if necessary
Reaction mixtures are prepared as follows:
and incubated at 37°C for 16-24 hours. At the end of the incubation period, the fluorescence is read using an excitation wavelength of 350 nm and emission wavelength of 400 nm.

[3] = test system: fixed protein (gelatin, i.e., collagen) surface; assay: Surface browning experiment on gelatin/paper disks; settings: 100 mM glucose-6-phosphate, one week at 50°C, pH 7.4; Peridex at final concentration of 0.04% chlorhexidine, no compound of Formula I
Experimental: To further study the ability of inhibitors of nonenzymatic browning to prevent the discoloration of protein on a surface, such as that which occurs on the tooth surface, the following surface browning experiment is performed. As a substitute for a pellicle-covered tooth surface, unexposed and developed photographic paper is used to provide a fixed protein (gelatin, i.e., collagen) surface on a paper backing. Five millimeter circles are punched and immersed for one week at 50°C in a solution of 100 mM glucose-6-phosphate in a 0.5 M phosphate buffer, pH 7.4, containing 3 mM sodium azide. Glucose-6-phosphate is a sugar capable of participating in nonenzymatic browning at a more rapid rate than glucose. In addition to the glucose-6-phosphate, chlorhexidine and/or a compound of Formula I are included. After incubation, the gelatin/paper disks are rinsed with water, observed for brown color, and photographed.

CC(=O)NCCNC(=N)NN.Cl [N-(2-acetamidoethyl)hydrazine carboximidamide hydrochloride]
% inhibition of NO release [1]: 15%
IC50 ([2]; hydrochloride): 10.6 mM

CC(=O)NCCCNC(=N)NN [N-(3-acetamidopropyl)hydrazinecarboximidamide]
% inhibition of NO release [1]: 33%
IC50 [2]: > 10 mM

[H]/N=C(\N/C(=N/[H])NCCCCCCNC(=N)NC(=N)Nc1ccc(Cl)cc1)Nc1ccc(Cl)cc1 [chlorhexidine]
browning of gelatin/paper disks [3]: significant browning

N=C(N)NN [Aminoguanidine hydrochloride, reference compound]
% inhibition of NO release [1]: 44%
IC50 [2]: 10 mM

Br.CC(=O)NCCNC(=N)NN [N-(2-acetamidoethyl)hydrazine carboximidamide hydrobromide]
% inhibition of NO release [1]: 20%
IC50 ([2]; hydrobromide): 11.5 mM
